Here are results for one substance from patent US9814754B2, “Combinations with a backbone-cyclized peptide” (POLYPHOR AG, priority 2012, dated 2017).

Format in all cases: in vivo
The subject of test [1] is Pseudomonas aeruginosa clinical isolate PA18298. In words: Murine pneumonia model, compound 1 in combination with amikacin (Example 4). Particulars: murine lungs. The method, then:
The efficacy and ED50 of the compound of formula (I) (“compound 1”) in combination with amikacin was determined against Pseudomonas aeruginosa clinical isolate PA18298 in a pneumonia model in mice. Colony counts in lung were determined at 20 hours post treatment.
Fresh overnight colonies of PA18298 from a 5% Horse Blood Agar plate were suspended in 0.9% sterile saline to approximately 10^8 CFU/ml and further diluted to approximately 5×10^7 CFU/ml. Female mice (DBA/2, outbred, 18-22 g, Charles River) were anesthetized with 0.1 ml of Zoletil and inoculated via the nose with a pipette with 0.05 ml of the bacteria suspension containing approximately 10^6 CFU. 4 hours after inoculation, the mice were treated orally with 45 μl neurophen (20 mg ibuprofen/ml corresponding to approximately 30 mg/kg) as pain relief.
175 mg of amikacin (Sigma) were dissolved in 5 ml 0.9% sterile saline to a concentration of 35 mg/ml and further diluted with saline to 3 mg/ml. The mice were treated subcutaneously with 0.2 ml in the neck region with a single dose at 3 hours post infection corresponding to 30 mg/kg on the basis of a mean animal weight of 20 g.
One vial containing 10 mg of active compound 1 was dissolved in 2 ml 0.9% sterile saline to a concentration of 5 mg/ml and further diluted with saline […], 1, 0.55, 0.275 and 0.137 mg/ml. The mice were treated subcutaneously with 0.2 ml in the neck region with a single dose at 4 hours post infection with a dose calculation based on a mean animal weight of 20 g. Colistin was used as a control in the same manner with a fixed dose of 20 mg/kg.
Colony counts were determined post inoculation at 4 hours (untreated mice) and 24 hours (treated and vehicle-only treated mice). Immediately after the mice were sacrificed, the lungs were collected and frozen at −20° C. After thawing, the organs were homogenized in 1 ml 0.9% saline. Each sample was then 10 fold diluted in saline and 20 μl spots were applied on blood agar plates. All agar plates were incubated 18-24 hours at 35° C. in ambient air.
The CFU/ml in the inoculum was determined to 7.4 log10 CFU/ml corresponding to 6.17 log10 CFU/mouse.
At 4 hours after inoculation the mean log 10 CFU/lung was 5.06 and the CFU level declined to 1.55 mean log 10 CFU/lung after 24 hours in the vehicle group.

Test [2] deals with Pseudomonas aeruginosa clinical isolate PA9349. Kind of test: Murine pneumonia model, compound 1 alone (Reference 2). Conditions: for mean CFU level compared to the vehicle group: lungs. As to the method:
Efficacy in Murine Pneumonia Model Against Pseudomonas aeruginosa PA9349 and Estimation of ED50
The efficacy and ED50 of the compound of formula (I) (“compound 1”) was determined against Pseudomonas aeruginosa clinical isolate PA9349 in a pneumonia model in mice. Colony counts in the lungs were determined at 18-20 hours post treatment.
Fresh overnight colonies of PA9349 from a 5% Horse Blood Agar plate were suspended in 0.9% sterile saline to approximately 10^8 CFU/ml and further diluted to approximately 5×10^6 CFU/ml. Female mice (DBA/2, outbred, 18-22 g, Charles River) were anesthetized with 0.1 ml of Zoletil (tiletamine+zolazepam) and inoculated via the nose with a pipette with 0.05 ml of the bacteria suspension containing approximately 5×10^5 CFU. 4 hours after inoculation, the mice were treated orally with 45 μl neurophen (20 mg ibuprofen/ml corresponding to approximately 30 mg/kg) as pain relief.
One vial containing 10 mg of active compound 1 was dissolved in 5 ml 0.9% sterile saline to a concentration of 2 mg/ml and was further 2-fold diluted with saline to 1, 0.5, 0.25, 0.125 and 0.06 mg/ml. The mice were treated subcutaneously with 0.2 ml in the neck region with a single dose at 4 hours post infection with a dose calculation based on a mean animal weight of 20 g. As positive control colistin was used in the same manner with a fixed dose of 40 mg/kg.
(§1) Colony counts were determined post inoculation at 4 hours (untreated mice) and 24 hours (treated and vehicle-only treated mice). Immediately after the mice were sacrificed, the lungs were collected and frozen at −20° C. After thawing, the organs were homogenized in 1 ml 0.9% saline. Each sample was then 10-fold diluted in saline and 20 μl spots were applied on blood agar plates. All agar plates were incubated 18-48 hours at 35° C. in ambient air.
The CFU/ml in the inoculum was determined to 7.29 log10 CFU/ml corresponding to 5.98 log10 CFU/mouse.
At 4 hours after infection the mean log10 CFU/lung was 3.47 and the CFU level increased to 4.92 at […] post inoculation in the vehicle-only group.

In test [3] the test system is Pseudomonas aeruginosa clinical isolate PA18298. Kind of test: Murine pneumonia model, compound 1 alone (Reference 3). The method, then: Efficacy in Murine Pneumonia Model Against Pseudomonas aeruginosa PA18298 and Estimation of ED50
The efficacy and ED50 of the compound of formula (I) (“compound 1”) was determined against Pseudomonas aeruginosa clinical isolate PA18298 in a pneumonia model in mice. Colony counts in the lungs were determined at 18-20 hours post treatment.
Fresh overnight colonies of PA18298 from a 5% Horse Blood Agar plate were suspended in 0.9% sterile saline to approximately 10^8 CFU/ml and further diluted to approximately 4×10^7 CFU/ml. Female mice (DBA/2, outbred, 18-22 g, Charles River) were anesthetized with 0.1 ml of Zoletil (tiletamine+zolazepam) and inoculated via the nose with a pipette with 0.05 ml of the bacteria suspension containing approximately 1×10^6 CFU. 4 hours after inoculation, the mice were treated orally with 45 μl neurophen (20 mg ibuprofen/ml corresponding to approximately 30 mg/kg) as pain relief.
One vial containing 10 mg of active compound 1 was dissolved in 2 ml 0.9% sterile saline to a concentration of 5 mg/ml and was further diluted with saline to 2, 1, 0.75, 0.55, 0.275 and 0.137 mg/ml. The mice were treated subcutaneously with 0.2 ml in the neck region with a single dose at 4 hours post infection with a dose calculation based on a mean animal weight of 20 g. As positive control colistin was used in the same manner with a fixed dose of 20 mg/kg.
as §1
The CFU/ml in the inoculum was determined to 7.49 log10 CFU/ml corresponding to 6.20 log10 CFU/mouse.
At 4 hours after infection the mean log10 CFU/lung was 5.05 and the CFU level declined to 2.62 at 24 hours post inoculation in the vehicle-only group.

Where [4] appears, read: in presence of 30 mg/kg amikacin.
Where [5] appears, read: compound 1 alone, s.c. single dose 4 h post infection, murine lungs.
The mark [6] stands for this setting: compound 1 alone, s.c., murine lungs.
The mark [7] stands for this setting: compound 1 alone, s.c., murine lungs, sigmoidal dose-response model (variable slope).

Square brackets hold non-standard residues; d marks the D form. dDab = NCC[C@@H](N)C(=O)O; Orn = NCCC[C@H](N)C(=O)O; Dab = NCC[C@H](N)C(=O)O

Regarding “cyclo(TWI[Dab][Orn][dDab][Dab]W[Dab][Dab]AS[dP]P) [compound 1]”, the Top level is given as −3.03 log10 CFU/ml in test [1] (compound 1 s.c. in presence of 30 mg/kg amikacin (s.c., 3 h post infection)); 1.59 log10 CFU/ml in test [2] (setting [5]); −3.60 log10 CFU/ml in test [3] (setting [5]). Moreover, the Bottom level in test [1] (setting [4]) was −3.82 log10 CFU/ml; in test [2] (setting [6]) it was −0.80 log10 CFU/ml; in test [3] (setting [6]), −2.48 log10 CFU/ml. Further, the Emax in test [1] (setting [4]) is 0.79 log10 CFU/ml; in test [2] (setting [6]), −2.4 log10 CFU/ml; in test [3] (setting [6]) it was 1.12 log10 CFU/ml. Also, the ED50 in test [1] (in presence of fixed dose of 30 mg/kg amikacin) was found to be 9.1 mg/kg; in test [2] (setting [7]), 7.35 mg/kg; in test [3] (setting [7]) it was 26.6 mg/kg. Besides, the “mean CFU level compared to the vehicle group” value was “reduction of the mean CFU level” in test [2] (10 mg/kg treatment group) and “significant reduction” in test [2] (20 mg/kg treatment group). For the same substance, the Static dose in test [2] (setting [6]) and in test [3] (setting [6]) was 9.15 mg/kg each time. Besides, in test [3] (11-20 mg/kg, lungs, p<0.01-p<0.001), the “CFU levels compared to vehicle treatment” value is given as “significant reduction of the CFU levels”.

The ED50 is the midpoint of the dose-response relation.
